Experimental data reported in ChEMBL document CHEMBL3044549, “Colchicine and its various physicochemical and biological aspects” (Med Chem Res, 2013).

What was measured:
[1] = Oral bioavailability in older Homo sapiens (human) individuals at 1 mg; assay type: ADME, organism-based; details: in vivo
Homo sapiens = species: Homo sapiens; assay: Distribution half life in Homo sapiens (human); assay type: ADME, organism-based; details: in vivo
[2] = Volume of distribution in Homo sapiens (human); assay type: ADME, organism-based; details: in vivo
[3] = Renal clearance in healthy Homo sapiens (human); assay type: ADME, organism-based, Kidney; details: in vivo
[4] = Oral bioavailability in healthy Homo sapiens (human) at 1 mg; assay type: ADME, organism-based; details: in vivo
[5] = Elimination half life in healthy Homo sapiens (human); assay type: ADME, organism-based; details: in vivo, read-out: beta t1/2 (converted)

COc1cc2c(c(OC)c1OC)-c1ccc(OC)c(=O)cc1[C@@H](NC(C)=O)CC2 [COLCHICINE]
bioavailability [1]: 45% | alphat1/2 (Homo sapiens): 1 h | Vd [2]: 7 L/kg | CL renal [3]: 66.7 mL/min | bioavailability [4]: 45% | half-life [5]: 840 min
